Source: the NIST ThermoML archive (doi:10.1016/j.tca.2015.07.011)
Values joined by “and” are separate entries in the source; they are usually repeats but may differ in a detail not shown here. Equal values may be shown once. Numbers after ± are expanded uncertainties.

How the values were obtained:
[1] = for mass density: 293 K, 101.33 kPa, Pycnometric method; for vapor or sublimation pressure: Transpiration method
[2] = Molar enthalpy of transition or fusion; conditions: DSC

CC(C)COc1ccccc1C(=O)O [2-iso-butoxybenzoic acid]
Conditions | mass density [kg/m3]
[1], Liquid | 1100 ± 100

[1], Liquid
Conditions | vapor or sublimation pressure
343.9 K | 0.0008 ± 7e-05 kPa
353.1 K | 0.00176 ± 0.00012 kPa
363.2 K | 0.0041 ± 0.00027 kPa
365.2 K | 0.0048 ± 0.00031 kPa
369.2 K | 0.00662 ± 0.00046 kPa
371.2 K | 0.00775 ± 0.00056 kPa
371.4 K | 0.00817 ± 0.00056 kPa and 0.00791 ± 0.00054 kPa
371.5 K | 0.00808 ± 0.00058 kPa
374.2 K | 0.01017 ± 0.00068 kPa
374.4 K | 0.00999 ± 0.00066 kPa
376.5 K | 0.01179 ± 0.00078 kPa
377.3 K | 0.01245 ± 0.00084 kPa
378.5 K | 0.01391 ± 0.00092 kPa
379.2 K | 0.01467 ± 0.00096 kPa
380.1 K | 0.01546 ± 0.001 kPa
380.2 K | 0.01553 ± 0.001 kPa
382.4 K | 0.0177 ± 0.0011 kPa
384.2 K | 0.02038 ± 0.0013 kPa
385.8 K | 0.02237 ± 0.0014 kPa
388.1 K | 0.02622 ± 0.0017 kPa
390.3 K | 0.03064 ± 0.002 kPa
393 K | 0.03639 ± 0.0023 kPa
395.2 K | 0.04478 ± 0.0029 kPa
398.1 K | 0.05373 ± 0.0034 kPa

COc1ccccc1C(=O)O [2-methoxybenzoic acid]
[1], Crystal
Conditions | vapor or sublimation pressure [kPa]
342.4 K | 0.00098 ± 8e-05
346.2 K | 0.00152 ± 0.0001
348.2 K | 0.00181 ± 0.00012
350.3 K | 0.00221 ± 0.00015
352.2 K | 0.00272 ± 0.00018
354.3 K | 0.00347 ± 0.00023
356.2 K | 0.00419 ± 0.00028
358.9 K | 0.00536 ± 0.00035
361.4 K | 0.0068 ± 0.00048
363.2 K | 0.00813 ± 0.00057
366.2 K | 0.01064 ± 0.00072
367.9 K | 0.01262 ± 0.00085
371.5 K | 0.01728 ± 0.0011

CC(C)COc1cccc(C(=O)O)c1 [3-iso-butoxybenzoic acid]
Crystal
Conditions | Molar enthalpy of transition or fusion [kJ/mol] | mass density [kg/m3]
[1] | – | 1130 ± 200
[2] | 25.2 ± 0.7 | –

[1]
Conditions | Normal melting temperature [°C] | vapor or sublimation pressure [kPa]
354.8 K, Liquid | – | 0.00162 ± 0.00012
356.2 K, Liquid | – | 0.00181 ± 0.00012
357.4 K, Liquid | – | 0.00202 ± 0.00014
359.5 K, Liquid | – | 0.00238 ± 0.00015
361.2 K, Liquid | – | 0.00281 ± 0.00019
363 K, Liquid | – | 0.0032 ± 0.0002
364.2 K, Liquid | – | 0.00358 ± 0.00023
365.7 K, Liquid | – | 0.00406 ± 0.00027
368.3 K, Liquid | – | 0.00493 ± 0.00032
370.9 K, Liquid | – | 0.00601 ± 0.00043
372.7 K, Liquid | – | 0.00707 ± 0.00049
373.7 K, Liquid | – | 0.00763 ± 0.00053
375.3 K, Liquid | – | 0.00871 ± 0.00059
378.2 K, Liquid | – | 0.01099 ± 0.00074
380.1 K, Liquid | – | 0.013 ± 0.00086
382.7 K, Liquid | – | 0.01579 ± 0.001
Crystal, DTA | 80.4 ± 1.1 | –
Crystal, visual observation | 80.00 ± 3 | –

CCCCOc1ccc(C(=O)O)cc1 [4-butoxybenzoic acid]
[1], Crystal
Conditions | vapor or sublimation pressure
377.8 K | 0.00164 ± 0.00012 kPa
383.4 K | 0.00285 ± 0.0002 kPa
391 K | 0.00586 ± 0.00038 kPa
396.2 K | 0.00973 ± 0.00066 kPa
399.3 K | 0.01214 ± 0.00082 kPa
401.3 K | 0.01536 ± 0.001 kPa
406.4 K | 0.02366 ± 0.0015 kPa
411.4 K | 0.03676 ± 0.0024 kPa
415.4 K | 0.04923 ± 0.0032 kPa
417.3 K | 0.05826 ± 0.0037 kPa and 0.05838 ± 0.0037 kPa

CC(C)COc1ccc(C(=O)O)cc1 [4-iso-butoxybenzoic acid]
Conditions | Molar enthalpy of transition or fusion, Crystal 1 [kJ/mol] | Molar enthalpy of transition or fusion, Crystal 2 [kJ/mol] | Normal melting temperature, Crystal 1, DTA [°C] | Triple point temperature, Crystal 2, DTA [K] | mass density, Crystal [kg/m3]
[1] | – | – | 142.2 ± 1.1 | 412.5 ± 1.1 | 1130 ± 200
[2] | 18.9 ± 0.6 | 2.8 ± 0.4 | – | – | –

[1]
Conditions | Normal melting temperature [°C] | vapor or sublimation pressure
342.3 K, Crystal 2 | – | 7e-05 ± 2e-05 kPa
343.5 K, Crystal 2 | – | 8e-05 ± 2e-05 kPa
346.4 K, Crystal 2 | – | 0.00011 ± 2e-05 kPa
348.5 K, Crystal 2 | – | 0.00014 ± 2e-05 kPa
349.2 K, Crystal 2 | – | 0.00015 ± 2e-05 kPa
353.4 K, Crystal 2 | – | 0.00026 ± 2e-05 kPa
353.6 K, Crystal 2 | – | 0.00025 ± 2e-05 kPa
356.9 K, Crystal 2 | – | 0.00038 ± 3e-05 kPa
359.2 K, Crystal 2 | – | 0.00046 ± 4e-05 kPa
360.4 K, Crystal 2 | – | 0.00055 ± 5e-05 kPa
361.6 K, Crystal 2 | – | 0.00066 ± 5e-05 kPa
363.4 K, Crystal 2 | – | 0.00078 ± 5e-05 kPa
363.5 K, Crystal 2 | – | 0.00078 ± 5e-05 kPa
365.4 K, Crystal 2 | – | 0.00096 ± 7e-05 kPa
365.9 K, Crystal 2 | – | 0.00102 ± 7e-05 kPa
367.8 K, Crystal 2 | – | 0.00122 ± 9e-05 kPa
368.2 K, Crystal 2 | – | 0.00119 ± 8e-05 kPa
368.7 K, Crystal 2 | – | 0.00134 ± 0.0001 kPa
368.9 K, Crystal 2 | – | 0.0014 ± 0.0001 kPa
370.7 K, Crystal 2 | – | 0.00162 ± 0.00012 kPa
373.1 K, Crystal 2 | – | 0.00199 ± 0.00013 kPa
373.3 K, Crystal 2 | – | 0.00216 ± 0.00015 kPa
378.6 K, Crystal 2 | – | 0.00342 ± 0.00023 kPa
379.3 K, Crystal 2 | – | 0.00369 ± 0.00025 kPa
381 K, Crystal 2 | – | 0.00422 ± 0.00027 kPa
388.5 K, Crystal 2 | – | 0.0089 ± 0.0006 kPa
390.5 K, Crystal 2 | – | 0.01034 ± 0.0007 kPa
393.6 K, Crystal 2 | – | 0.01381 ± 0.00092 kPa and 0.01388 ± 0.00092 kPa
393.7 K, Crystal 2 | – | 0.0142 ± 0.00094 kPa
393.8 K, Crystal 2 | – | 0.01384 ± 0.00092 kPa
395.2 K, Crystal 2 | – | 0.01617 ± 0.0011 kPa
396.9 K, Crystal 2 | – | 0.01961 ± 0.0013 kPa
397.4 K, Crystal 2 | – | 0.02032 ± 0.0013 kPa
398.6 K, Crystal 2 | – | 0.02126 ± 0.0014 kPa
399 K, Crystal 2 | – | 0.02336 ± 0.0015 kPa
399.9 K, Crystal 2 | – | 0.02413 ± 0.0016 kPa
402.6 K, Crystal 2 | – | 0.03218 ± 0.002 kPa
403.2 K, Crystal 2 | – | 0.03283 ± 0.0021 kPa
Crystal, visual observation | 140.00 ± 3 | –
